Measurements reported in patent publication US6737383B1, “Herbicidal oxadiazolidines” (priority 1999, dated 2004).

What was measured:
Italian ryegrass = assay: Test E Italian ryegrass; format: in vivo, Lolium multiflorum; details: Preemergence; for Plant response rating, I. Ryegrass: 0 to 100 scale where 0 is no effect and 100 is complete control
green foxtail = assay: Test E green foxtail; format: in vivo, Setaria viridis; details: Preemergence; for Plant response rating, Green foxtail: 0 to 100 scale where 0 is no effect and 100 is complete control
winter wheat [1] = assay: Test E winter wheat; format: in vivo, Triticum aestivum; details: Preemergence; for Plant response rating, Wheat (winter): 0 to 100 scale where 0 is no effect and 100 is complete control
wild oat = assay: Test E wild oat; format: in vivo, Avena fatua; details: Preemergence; for Plant response rating, Wild oat: 0 to 100 scale where 0 is no effect and 100 is complete control
winter barley = assay: Test E winter barley; format: in vivo, Hordeum vulgare; details: Preemergence; for Plant response rating, Barley (winter): 0 to 100 scale where 0 is no effect and 100 is complete control
blackgrass = assay: Test E blackgrass; format: in vivo, Alopecurus myosuroides; details: Preemergence; for Plant response rating, Blackgrass: 0 to 100 scale where 0 is no effect and 100 is complete control
crabgrass = assay: Test B pre/postemergence crabgrass; format: in vivo, Digitaria sanguinalis
Summary of the method: (§1)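 Test chemicals in a non-phytotoxic solvent mixture with surfactant were sprayed preemergence onto planted seeds and postemergence onto plants 2 to 18 cm tall (1- to 4-leaf stage). After twelve to sixteen days in a greenhouse, injury was visually rated against untreated controls from 0 (no effect) to 10 (complete control).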

purple nutsedge = assay: Test B pre/postemergence purple nutsedge; format: in vivo, Cyperus rotundus
Summary of the method: as §1

winter wheat [2] = assay: Test E winter wheat; format: in vivo, Triticum aestivum; details: Postemergence, 0 to 100 scale
Summary of the method: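 Visual evaluation versus untreated controls after about 21 to 28 days in the greenhouse. Compound was in a surfactant-containing non-phytotoxic solvent; postemergence plants were treated at the 1- to 4-leaf stage, grown in a 60:40 sandy loam and potting mix blend.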

[3] = Postemergence, Rate 125 g/ha, scale of 0 to 10 where 0 is no effect and 10 is complete control
[4] = Preemergence, Rate 62 g/ha, scale of 0 to 10 where 0 is no effect and 10 is complete control
[5] = Preemergence, Rate 125 g/ha, 0 is no effect, 10 is complete control
[6] = Preemergence, Rate 250 g/ha, scale 0 to 10, 0 is no effect, 10 is complete control
[7] = Preemergence, Rate 500 g/ha, scale 0 to 10 (0 no effect, 10 complete control)
[8] = Rate 62 g/ha, Postemergence, scale of 0 to 10 where 0 is no effect and 10 is complete control
[9] = Rate 250 g/ha, Postemergence, scale 0 to 10, 0 is no effect, 10 is complete control
[10] = Rate 500 g/ha, Postemergence, scale 0 to 10

## CC1CCCCC1n1c(=O)on(C(=O)N(c2ccc(F)cc2F)C(C)C)c1=O (stereo not drawn) [Compound 172]
Italian ryegrass; Rate 250 g/ha
  I. Ryegrass plant response rating (0 to 100 scale): 30
Italian ryegrass; Rate 500 g/ha
  Plant response rating, I. Ryegrass: 65
Italian ryegrass; Rate 1000 g/ha
  Plant response rating, I. Ryegrass: 80
Green foxtail; Rate 250 g/ha
  Green foxtail plant response rating (0 to 100 scale): 60
Green foxtail; Rate 500 g/ha
  Plant response rating, Green foxtail: 85
Green foxtail; Rate 1000 g/ha
  Plant response rating, Green foxtail: 100
Winter wheat [1]; Rate 250 g/ha
  Wheat (winter) plant response rating (0 to 100 scale): 10
Winter wheat [1]; Rate 500 g/ha
  Plant response rating, Wheat (winter): 20
Winter wheat [1]; Rate 1000 g/ha
  Plant response rating, Wheat (winter): 30
Wild oat; Rate 250 g/ha
  Wild oat plant response rating (0 to 100 scale): 30
Wild oat; Rate 500 g/ha
  Plant response rating, Wild oat: 40
Wild oat; Rate 1000 g/ha
  Plant response rating, Wild oat: 50
Winter barley; Rate 250 g/ha
  Barley (winter) plant response rating (0 to 100 scale): 40
Winter barley; Rate 500 g/ha
  Plant response rating, Barley (winter): 40
Winter barley; Rate 1000 g/ha
  Plant response rating, Barley (winter): 20
blackgrass; Rate 250 g/ha
  Blackgrass plant response rating (0 to 100 scale): 50
blackgrass; Rate 500 g/ha
  Plant response rating, Blackgrass: 60
blackgrass; Rate 1000 g/ha
  Plant response rating, Blackgrass: 80
crabgrass; [3]
  Crabgrass plant response rating: 3
crabgrass; [4]
  Crabgrass plant response rating: 7
crabgrass; [5]
  Crabgrass plant response rating (0 to 10 scale): 8
crabgrass; [6]
  Crabgrass plant response rating: 10
crabgrass; [7]
  Crabgrass plant response rating: 10
crabgrass; [8]
  Crabgrass plant response rating: 0
crabgrass; [9]
  Plant response rating, Crabgrass: 9
crabgrass; [10]
  Crabgrass plant response rating: 9
Purple nutsedge; [3]
  Nutsedge plant response rating: 0
Purple nutsedge; [4]
  Nutsedge plant response rating: 0
Purple nutsedge; [5]
  Nutsedge plant response rating (0 to 10 scale): 0
Purple nutsedge; [6]
  Nutsedge plant response rating: 0
Purple nutsedge; [7]
  Nutsedge plant response rating: 0
Purple nutsedge; [8]
  Nutsedge plant response rating: 0
Purple nutsedge; [9]
  Plant response rating, Nutsedge: 0
Purple nutsedge; [10]
  Nutsedge plant response rating: 0
Winter wheat [2]; Rate 1000 g/ha, 0 is no effect and 100 is complete control
  Plant response rating, Wheat (winter): 50
Winter wheat [2]; Rate 500 g/ha, 0 is no effect, 100 is complete control
  Plant response rating, Wheat (winter): 40
